Assay results reported in PubChem BioAssay AID192 (DTP/NCI, 2004).
Values joined by “and” are separate entries in the source; they are usually repeats but may differ in a detail not shown here. Identical values can stand only once. Toxic doses and inconclusive results are not listed. Peptide text beside a SMILES is read from it. * marks the point of attachment. Cbz = O=C(OCc1ccccc1)*

Tested on: BDF1 mice, B16 melanoma ip, median survival T/C
Assay: NCI In Vivo Anticancer Drug Screen. Data for tumor model B16 Melanoma (intraperitoneal) in B6D2F1 (BDF1) mice
Conditions: endpoint: median survival time, higher = longer survival
Summary of the method: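 In this screen, activity was judged from survival or tumor size in treated versus vehicle-treated tumor-bearing mice, reported as T/C.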

[1] = dose: 100.0 mg/kg/injection, schedule: Q01DX009 (ip), vehicle: saline with Tween-80
[2] = dose: 100.0 mg/kg/injection, schedule: Q04DX003 (ip), vehicle: saline with Tween-80
[3] = dose: 200.0 mg/kg/injection, schedule: Q01DX009 (ip), vehicle: saline with Tween-80
[4] = dose: 200.0 mg/kg/injection, schedule: Q04DX003 (ip), vehicle: saline with Tween-80
[5] = dose: 400.0 mg/kg/injection, schedule: Q04DX003 (ip), vehicle: saline with Tween-80
[6] = dose: 12.5 mg/kg/injection, schedule: Q01DX009 (ip), vehicle: saline with Tween-80
[7] = dose: 25.0 mg/kg/injection, schedule: Q01DX009 (ip), vehicle: saline with Tween-80
[8] = dose: 100.0 mg/kg/injection, schedule: Q01DX009 (ip), vehicle: saline
[9] = dose: 200.0 mg/kg/injection, schedule: Q01DX009 (ip), vehicle: saline
[10] = dose: 400.0 mg/kg/injection, schedule: Q01DX009 (ip), vehicle: saline
[11] = dose: 50.0 mg/kg/injection, schedule: Q01DX009 (ip), vehicle: saline
[12] = dose: 50.0 mg/kg/injection, schedule: Q01DX009 (ip), vehicle: saline with Tween-80
[13] = dose: 100.0 mg/kg/injection, schedule: Q01DX009 (ip), vehicle: Klucel (hydroxypropylcellulose) (HPC)
[14] = dose: 200.0 mg/kg/injection, schedule: Q01DX009 (ip), vehicle: Klucel (hydroxypropylcellulose) (HPC)
[15] = dose: 400.0 mg/kg/injection, schedule: Q01DX009 (ip), vehicle: Klucel (hydroxypropylcellulose) (HPC)
[16] = dose: 3.12 mg/kg/injection, schedule: Q01DX009 (ip), vehicle: saline
[17] = dose: 12.5 mg/kg/injection, schedule: Q01DX009 (ip), vehicle: saline
[18] = dose: 25.0 mg/kg/injection, schedule: Q01DX009 (ip), vehicle: saline
[19] = dose: 50.0 mg/kg/injection, schedule: Q01DX009 (ip), vehicle: Klucel (hydroxypropylcellulose) (HPC)

CCOC(=O)C(=CN1CCOCC1)C(=O)OCC
T/C [1]: 90 % of control | T/C [2]: 100 % of control | T/C [3]: 98 % of control | T/C [4]: 102 % of control | T/C (dose: 400.0 mg/kg/injection, schedule: Q01DX009 (ip), vehicle: saline with Tween-80): 98 % of control | T/C [5]: 109 % of control

CCOC1=C(N2CC2)C(=O)C(OCC)=C(N2CC2)C1=O
T/C (dose: 0.5 mg/kg/injection, schedule: Q01DX009 (ip), vehicle: saline): 105 % of control | T/C (dose: 2.0 mg/kg/injection, schedule: Q01DX009 (ip), vehicle: saline): 121 % of control

COc1ccc(OC)c(NC=O)c1
T/C (dose: 6.25 mg/kg/injection, schedule: Q01DX009 (ip), vehicle: saline with Tween-80): 91 % of control | T/C [6]: 106 % of control | T/C [7]: 90 % of control and 97 % of control

CCOC(=O)N(C)C
T/C [8]: 93 % of control | T/C [9]: 98 % of control | T/C [10]: 94 % of control

O=c1cc(-c2ccccc2)[nH]c(=S)[nH]1
T/C [1]: 114 % of control | T/C [3]: 108 % of control

N[C@H](C(=O)O)[C@@H]1CC(Cl)=NO1
T/C (dose: 0.25 mg/kg/injection, schedule: Q01DX009 (ip), vehicle: saline): 93 % of control and 96 % of control and 102 % of control | T/C (dose: 0.75 mg/kg/injection, schedule: Q01DX009 (ip), vehicle: saline): 112 % of control | T/C (dose: 1.5 mg/kg/injection, schedule: Q01DX009 (ip), vehicle: saline): 110 % of control | T/C (dose: 3.0 mg/kg/injection, schedule: Q01DX009 (ip), vehicle: saline): 114 % of control | T/C (dose: 6.0 mg/kg/injection, schedule: Q01DX009 (ip), vehicle: saline): 156 % of control | T/C (dose: 12.0 mg/kg/injection, schedule: Q01DX009 (ip), vehicle: saline): 57 % of control

O=C(N/N=C/c1ccc(O)cc1O)c1cccnc1
T/C (dose: 25.0 mg/kg/injection, schedule: Q01DX009 (ip), vehicle: olive oil, sesame oil, peanut oil): 86 % of control

COc1cccc2c1C(=O)c1c(O)c3c(c(O)c1C2=O)CC(O)(/C(C)=N/NC(=O)CCC(=O)N/N=C(\C)C1(O)Cc2c(O)c4c(c(O)c2C(OC2CC(N)C(O)C(C)O2)C1)C(=O)c1c(OC)cccc1C4=O)CC3OC1CC(N)C(O)C(C)O1 (stereo not given)
T/C (dose: 4.0 mg/kg/injection, schedule: Q01DX001 (ip), vehicle: water): 163 % of control | T/C (dose: 8.0 mg/kg/injection, schedule: Q01DX001 (ip), vehicle: water): 165 % of control and 168 % of control and 172 % of control | T/C (dose: 16.0 mg/kg/injection, schedule: Q01DX001 (ip), vehicle: water): 189 % of control and 292 % of control | T/C (dose: 32.0 mg/kg/injection, schedule: Q01DX001 (ip), vehicle: water): 123 % of control and 293 % of control and 313 % of control | T/C (dose: 64.0 mg/kg/injection, schedule: Q01DX001 (ip), vehicle: water): 315 % of control

C[N+](C)(C)c1nc(N)nc2c1ncn2C1OC(CO)C(O)C1O (stereo not given)
T/C [11]: 106 % of control | T/C [8]: 103 % of control | T/C [9]: 109 % of control

CCC1OC2(C)C(O)C(/C=C/C=C/C=C/c3oc(=O)cc(OC)c3C)OC1(C)C2OC(C)=O (stereo not given)
T/C (dose: 0.5 mg/kg/injection, schedule: Q01DX009 (ip), vehicle: Klucel (hydroxypropylcellulose) (HPC)): 94 % of control | T/C (dose: 1.0 mg/kg/injection, schedule: Q01DX009 (ip), vehicle: Klucel (hydroxypropylcellulose) (HPC)): 93 % of control | T/C (dose: 2.0 mg/kg/injection, schedule: Q01DX009 (ip), vehicle: Klucel (hydroxypropylcellulose) (HPC)): 94 % of control

CC(=O)Nc1ccc([N+](=O)[O-])cc1
T/C (dose: 12.5 mg/kg/injection, schedule: Q01DX009 (ip), vehicle: alcohol): 95 % of control | T/C (dose: 25.0 mg/kg/injection, schedule: Q01DX009 (ip), vehicle: alcohol): 102 % of control | T/C (dose: 50.0 mg/kg/injection, schedule: Q01DX009 (ip), vehicle: alcohol): 93 % of control | T/C [1]: 88 % of control

COc1cc(OC)c(OC)cc1/C=C\c1ccnc2ccccc12
T/C [8]: 97 % of control | T/C [9]: 105 % of control | T/C [10]: 107 % of control | T/C (dose: 800.0 mg/kg/injection, schedule: Q01DX009 (ip), vehicle: saline): 102 % of control

O=C(NC(Cc1ccccc1)C(=O)NC(Cc1ccc(O)cc1)C(=O)O)OCc1ccccc1 (stereo not drawn) (Cbz-Phe-Tyr-OH; configuration not given here)
T/C [12]: 105 % of control | T/C [1]: 86 % of control

CCCC/C=C/CCCCCCCC(=O)OCCCCCCCCCCCCCCCC
T/C [6]: 100 % of control | T/C [7]: 101 % of control | T/C [12]: 94 % of control | T/C [1]: 94 % of control

O=C(OC1CC2CC=CC21)c1ccc([N+](=O)[O-])cc1 (stereo not given)
T/C [2]: 100 % of control | T/C [4]: 94 % of control | T/C [5]: 94 % of control

CC(C)N(C(=O)Nc1ccccc1Cl)c1ccccc1
T/C [13]: 89 % of control | T/C [14]: 91 % of control | T/C [15]: 92 % of control

Cc1ccc(C)c(NC(=O)c2ccc(Cl)cc2Cl)c1
T/C [2]: 100 % of control | T/C [4]: 94 % of control | T/C [5]: 88 % of control

Cn1ccccc1=O
T/C [11]: 124 % of control | T/C [8]: 120 % of control | T/C [9]: 117 % of control

CN1CCN(CCC=C2c3ccccc3Sc3ccc(S(=O)(=O)N(C)C)cc32)CC1
T/C (dose: 0.78 mg/kg/injection, schedule: Q01DX009 (ip), vehicle: saline): 102 % of control | T/C (dose: 1.56 mg/kg/injection, schedule: Q01DX009 (ip), vehicle: saline): 100 % of control | T/C [16]: 86 % of control | T/C [17]: 89 % of control

CC(Cc1ccccc1)NC(=O)/C=C/C(=O)O (stereo not given)
T/C [13]: 95 % of control | T/C [14]: 91 % of control | T/C [15]: 89 % of control

CN(C)CCCNC(=O)Nc1ccccc1
T/C [13]: 100 % of control | T/C [14]: 92 % of control

COc1cccc2c1C(=O)c1c(O)c3c(c(O)c1C2=O)C[C@@](O)(C(=O)COC(=O)CCCCC(=O)O)C[C@@H]3OC1CC(NC(=O)C(F)(F)F)C(O)C(C)O1 (stereo not given in full)
T/C (dose: 18.75 mg/kg/injection, schedule: Q01DX001 (ip), vehicle: other): 175 % of control | T/C (dose: 37.5 mg/kg/injection, schedule: Q01DX001 (ip), vehicle: other): 168 % of control and 205 % of control | T/C (dose: 75.0 mg/kg/injection, schedule: Q01DX001 (ip), vehicle: other): 205 % of control and 271 % of control | T/C (dose: 150.0 mg/kg/injection, schedule: Q01DX001 (ip), vehicle: other): 150 % of control

CCc1cc(O)cc(C)c1Cl
T/C [6]: 95 % of control | T/C [7]: 110 % of control | T/C [12]: 99 % of control and 106 % of control

CCN(CC)CCNCCN
T/C [17]: 94 % of control | T/C [18]: 97 % of control | T/C [11]: 94 % of control

C1=CC2(OCCO2)C2CC=CC3(OCCO3)C2C1 (stereo not given)
T/C [19]: 104 % of control | T/C [13]: 97 % of control

COc1ccc(NC(=O)Nc2ccc(C)cc2C)cc1
T/C (dose: 25.0 mg/kg/injection, schedule: Q01DX009 (ip), vehicle: Klucel (hydroxypropylcellulose) (HPC)): 106 % of control | T/C [19]: 101 % of control | T/C [13]: 106 % of control | T/C [14]: 93 % of control

CC(C)NC(=O)c1ccc(N/N=[N+](/C)[O-])cc1
T/C [7]: 121 % of control | T/C [12]: 107 % of control | T/C [1]: 93 % of control and 111 % of control

Cn1ncc2c(N)ncnc21
T/C (dose: 1.25 mg/kg/injection, schedule: Q01DX009 (ip), vehicle: Klucel (hydroxypropylcellulose) (HPC)): 102 % of control | T/C (dose: 2.5 mg/kg/injection, schedule: Q01DX009 (ip), vehicle: Klucel (hydroxypropylcellulose) (HPC)): 111 % of control | T/C (dose: 5.0 mg/kg/injection, schedule: Q01DX009 (ip), vehicle: Klucel (hydroxypropylcellulose) (HPC)): 105 % of control | T/C (dose: 10.0 mg/kg/injection, schedule: Q01DX009 (ip), vehicle: Klucel (hydroxypropylcellulose) (HPC)): 119 % of control

NCC1OC(OC2C(N)CC(N)C(O)C2OC2OC(CO)C(O)C2O)C(N)C(O)C1O (stereo not given)
T/C [17]: 93 % of control | T/C [18]: 100 % of control | T/C [11]: 93 % of control | T/C [8]: 96 % of control

CN(C)CC(CN1c2ccccc2Sc2ccccc21)N(C)C (stereo not given)
T/C [16]: 102 % of control | T/C (dose: 6.25 mg/kg/injection, schedule: Q01DX009 (ip), vehicle: saline): 107 % of control | T/C [17]: 107 % of control | T/C [18]: 120 % of control | T/C [11]: 105 % of control

Cc1cccc(NC(=O)Nc2ccc(Cl)cc2)c1C
T/C (dose: 100.0 mg/kg/injection, schedule: Q01DX009 (ip), vehicle: gum acacia): 112 % of control | T/C (dose: 200.0 mg/kg/injection, schedule: Q01DX009 (ip), vehicle: gum acacia): 107 % of control

O=C(O)C(S)c1ccc2ccccc2c1 (stereo not given)
T/C [13]: 101 % of control | T/C [14]: 96 % of control
